Experiment: xn = mol fraction of the nth substance listed

Cc1ccccc1 + CO
Conditions	viscosity [mPa·s]
293.15 K, 101 kPa, x1 = 0.0405	0.5903
293.15 K, 101 kPa, x1 = 0.0868	0.5951
293.15 K, 101 kPa, x1 = 0.1401	0.6009
293.15 K, 101 kPa, x1 = 0.2022	0.6067
293.15 K, 101 kPa, x1 = 0.2755	0.6121
293.15 K, 101 kPa, x1 = 0.3632	0.6167
293.15 K, 101 kPa, x1 = 0.4701	0.6194
293.15 K, 101 kPa, x1 = 0.6033	0.6184
293.15 K, 101 kPa, x1 = 0.7739	0.6098
293.15 K, 101 kPa, x2 = 0.2	0.582
293.15 K, 101 kPa, x2 = 0.4	0.601
293.15 K, 101 kPa, x2 = 0.6	0.62
293.15 K, 101 kPa, x2 = 0.8	0.623
293.16 K, 101 kPa, x2 = 0.7465	0.6073
293.16 K, 101 kPa, x2 = 0.8178	0.6149
293.16 K, 101 kPa, x2 = 0.9632	0.6049
298.15 K, 101 kPa, x1 = 0.0405	0.552
298.15 K, 101 kPa, x1 = 0.0868	0.5572
298.15 K, 101 kPa, x1 = 0.1401	0.5628
298.15 K, 101 kPa, x1 = 0.2022	0.5679
298.15 K, 101 kPa, x1 = 0.2755	0.573
298.15 K, 101 kPa, x1 = 0.3632	0.5779
298.15 K, 101 kPa, x1 = 0.4701	0.5803
298.15 K, 101 kPa, x1 = 0.6033	0.5796
298.15 K, 101 kPa, x1 = 0.7739	0.5809
298.15 K, 101 kPa, x2 = 0.0499	0.551
298.15 K, 101 kPa, x2 = 0.0998	0.547
298.15 K, 101 kPa, x2 = 0.1993	0.54
298.15 K, 101 kPa, x2 = 0.2269	0.5998
298.15 K, 101 kPa, x2 = 0.2998	0.541
298.15 K, 101 kPa, x2 = 0.3977	0.6168
298.15 K, 101 kPa, x2 = 0.4007	0.55
298.15 K, 101 kPa, x2 = 0.4998	0.557
298.15 K, 101 kPa, x2 = 0.5309	0.6284
298.15 K, 101 kPa, x2 = 0.6002	0.562
298.15 K, 101 kPa, x2 = 0.6377	0.6259
298.15 K, 101 kPa, x2 = 0.7	0.572
298.15 K, 101 kPa, x2 = 0.7252	0.6143
298.15 K, 101 kPa, x2 = 0.7983	0.599
298.15 K, 101 kPa, x2 = 0.8	0.569
298.15 K, 101 kPa, x2 = 0.8606	0.5847
298.15 K, 101 kPa, x2 = 0.9	0.561
298.15 K, 101 kPa, x2 = 0.9136	0.5831
298.15 K, 101 kPa, x2 = 0.9501	0.555
298.15 K, 101 kPa, x2 = 0.9597	0.5642
298.16 K, 101 kPa, x2 = 0.4032	0.5406
298.16 K, 101 kPa, x2 = 0.7442	0.5644
298.16 K, 101 kPa, x2 = 0.9625	0.5599
303 K, 101 kPa, x1 = 0.1006	0.549
303 K, 101 kPa, x1 = 0.2012	0.599
303 K, 101 kPa, x1 = 0.3009	0.585
303 K, 101 kPa, x1 = 0.3981	0.578
303 K, 101 kPa, x1 = 0.5016	0.573
303 K, 101 kPa, x1 = 0.6052	0.566
303 K, 101 kPa, x1 = 0.7001	0.562
303 K, 101 kPa, x1 = 0.8095	0.559
303 K, 101 kPa, x1 = 0.9011	0.537
303.15 K, 101.33 kPa, x1 = 0.0724	0.588
303.15 K, 101.33 kPa, x1 = 0.0912	0.531
303.15 K, 101.33 kPa, x1 = 0.1636	0.588
303.15 K, 101.33 kPa, x1 = 0.2105	0.539
303.15 K, 101.33 kPa, x1 = 0.2773	0.542
303.15 K, 101.33 kPa, x1 = 0.3517	0.569
303.15 K, 101.33 kPa, x1 = 0.3723	0.54
303.15 K, 101.33 kPa, x1 = 0.4963	0.529
303.15 K, 101.33 kPa, x1 = 0.5095	0.544
303.15 K, 101.33 kPa, x1 = 0.6126	0.539
303.15 K, 101.33 kPa, x1 = 0.6944	0.515
303.15 K, 101.33 kPa, x1 = 0.7321	0.532
303.15 K, 101.33 kPa, x1 = 0.8307	0.513
303.15 K, 101.33 kPa, x1 = 0.8541	0.527
303.15 K, 101.33 kPa, x1 = 0.888	0.516
303.15 K, 101.33 kPa, x1 = 0.9511	0.52
308.15 K, 101 kPa, x1 = 0.0405	0.4855
308.15 K, 101 kPa, x1 = 0.0868	0.4908
308.15 K, 101 kPa, x1 = 0.1401	0.4965
308.15 K, 101 kPa, x1 = 0.2022	0.5022
308.15 K, 101 kPa, x1 = 0.2755	0.5079
308.15 K, 101 kPa, x1 = 0.3632	0.5132
308.15 K, 101 kPa, x1 = 0.4701	0.517
308.15 K, 101 kPa, x1 = 0.6033	0.5188
308.15 K, 101 kPa, x1 = 0.7739	0.5021
308.15 K, 101.33 kPa, x1 = 0.0912	0.495
308.15 K, 101.33 kPa, x1 = 0.2105	0.502
308.15 K, 101.33 kPa, x1 = 0.2773	0.504
308.15 K, 101.33 kPa, x1 = 0.3723	0.502
308.15 K, 101.33 kPa, x1 = 0.4963	0.494
308.15 K, 101.33 kPa, x1 = 0.6944	0.482
308.15 K, 101.33 kPa, x1 = 0.8307	0.481
308.15 K, 101.33 kPa, x1 = 0.888	0.483
308.15 K, 101.33 kPa, x1 = 0.9511	0.488
313.15 K, 101.33 kPa, x1 = 0.0724	0.5
313.15 K, 101.33 kPa, x1 = 0.1636	0.503
313.15 K, 101.33 kPa, x1 = 0.3517	0.487
313.15 K, 101.33 kPa, x1 = 0.5095	0.485
313.15 K, 101.33 kPa, x1 = 0.6126	0.48
313.15 K, 101.33 kPa, x1 = 0.7321	0.475
313.15 K, 101.33 kPa, x1 = 0.8541	0.464
318.15 K, 101 kPa, x1 = 0.0405	0.4298
318.15 K, 101 kPa, x1 = 0.0868	0.4372
318.15 K, 101 kPa, x1 = 0.1401	0.4452
318.15 K, 101 kPa, x1 = 0.2022	0.4538
318.15 K, 101 kPa, x1 = 0.2755	0.4629
318.15 K, 101 kPa, x1 = 0.3632	0.4726
318.15 K, 101 kPa, x1 = 0.4701	0.4817
318.15 K, 101 kPa, x1 = 0.6033	0.4892
318.15 K, 101 kPa, x1 = 0.7739	0.4809
323.15 K, 101.33 kPa, x1 = 0.0724	0.433
323.15 K, 101.33 kPa, x1 = 0.1636	0.441
323.15 K, 101.33 kPa, x1 = 0.3517	0.407
323.15 K, 101.33 kPa, x1 = 0.5095	0.42
323.15 K, 101.33 kPa, x1 = 0.6126	0.413
323.15 K, 101.33 kPa, x1 = 0.7321	0.41
323.15 K, 101.33 kPa, x1 = 0.8541	0.408

Source: the CheMixHub viscosity set
